Assay results taken from US9221838B2, “Inhibitors of AKT activity” (ALMAC DISCOVERY LIMITED, priority 2009, dated 2015).

Assays:
Format in all cases: biochemical
[1] = target: T1, AKT1 (Homo sapiens, UniProt P31749); assay: AKT Kinase Assay (IMAP fluorescent polarisation) vs AKT1
T1 construct: purchased SignalChem
In short: (§1)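 Phosphorylation of FAM-Crosstide detected by IMAP binding and fluorescence polarisation (485/528 nm), with IC50 fitted from % inhibition versus vehicle. Compound was incubated 45 min with enzyme, then reacted 1 h at room temperature with ATP and peptide in Tris/MgCl2/DTT buffer. Dose response had fourteen half-log points.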

[2] = target: T2, AKT2 (Homo sapiens, UniProt P31751); assay: AKT Kinase Assay (IMAP fluorescent polarisation) vs AKT2
T2 construct: purchased SignalChem
In short: as §1

[3] = target: T3, AKT3 (Homo sapiens, UniProt Q9Y243); assay: AKT Kinase Assay (IMAP fluorescent polarisation) vs AKT3
T3 construct: purchased SignalChem
In short: as §1

T1 sequence (P31749 whole entry): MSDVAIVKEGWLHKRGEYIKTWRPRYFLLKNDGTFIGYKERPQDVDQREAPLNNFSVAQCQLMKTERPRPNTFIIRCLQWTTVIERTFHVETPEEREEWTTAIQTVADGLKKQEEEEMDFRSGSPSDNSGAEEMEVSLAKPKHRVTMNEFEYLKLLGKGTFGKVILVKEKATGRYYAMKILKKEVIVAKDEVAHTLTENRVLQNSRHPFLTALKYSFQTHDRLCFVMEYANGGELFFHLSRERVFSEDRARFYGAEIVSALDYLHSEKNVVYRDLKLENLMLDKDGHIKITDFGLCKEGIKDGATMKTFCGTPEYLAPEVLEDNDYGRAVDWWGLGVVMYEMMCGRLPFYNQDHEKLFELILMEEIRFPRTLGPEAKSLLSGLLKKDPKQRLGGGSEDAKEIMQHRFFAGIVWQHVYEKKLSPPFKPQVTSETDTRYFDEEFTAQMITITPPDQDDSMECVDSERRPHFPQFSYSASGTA
T3 sequence (Q9Y243 whole entry): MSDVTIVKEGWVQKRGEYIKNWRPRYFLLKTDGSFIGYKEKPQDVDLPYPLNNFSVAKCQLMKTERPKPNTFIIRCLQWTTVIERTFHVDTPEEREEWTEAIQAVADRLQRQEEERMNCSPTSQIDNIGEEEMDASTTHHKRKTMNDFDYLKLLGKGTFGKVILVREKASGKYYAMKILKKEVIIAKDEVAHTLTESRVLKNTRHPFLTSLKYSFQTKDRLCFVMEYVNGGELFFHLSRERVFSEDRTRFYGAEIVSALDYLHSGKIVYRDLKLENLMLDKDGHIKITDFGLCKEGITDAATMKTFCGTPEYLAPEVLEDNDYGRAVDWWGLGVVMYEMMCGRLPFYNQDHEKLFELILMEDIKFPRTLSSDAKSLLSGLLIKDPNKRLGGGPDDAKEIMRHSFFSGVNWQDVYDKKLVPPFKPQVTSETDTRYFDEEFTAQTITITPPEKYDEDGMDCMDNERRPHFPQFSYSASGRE
T2 sequence (P31751 whole entry): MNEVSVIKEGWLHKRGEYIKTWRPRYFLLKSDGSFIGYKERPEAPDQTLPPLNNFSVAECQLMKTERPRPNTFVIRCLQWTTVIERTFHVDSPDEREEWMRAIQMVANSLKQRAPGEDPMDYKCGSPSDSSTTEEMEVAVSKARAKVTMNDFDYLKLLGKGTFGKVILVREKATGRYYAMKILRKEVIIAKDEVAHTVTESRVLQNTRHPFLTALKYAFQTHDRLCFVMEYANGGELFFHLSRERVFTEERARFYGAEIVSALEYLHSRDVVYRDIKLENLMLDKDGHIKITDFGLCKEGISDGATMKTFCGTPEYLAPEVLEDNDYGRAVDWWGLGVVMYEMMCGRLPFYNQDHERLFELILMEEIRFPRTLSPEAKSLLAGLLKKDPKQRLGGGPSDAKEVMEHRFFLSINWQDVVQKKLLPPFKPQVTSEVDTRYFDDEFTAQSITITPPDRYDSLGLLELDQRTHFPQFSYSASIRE

| IC50 [1] [nM] | IC50 [2] [nM] | IC50 [3] [nM] | Compound |
| --- | --- | --- | --- |
| 100 to 1000 | 100 to 1000 | 100 to 1000 | N[C@]1(c2ccc(-c3nc4c(cc3-c3ccccc3)-n3c(n[nH]c3=O)CO4)cc2)C[C@H](O)C1 [Example 141, 7-(4-((1s,3s)-1-amino-3-hydroxycyclobutyl)phenyl)-8-phenyl-2,4-dihydro-1H-pyrido[2,3-b][1,2,4]triazolo[4,3-d][1,4]oxazin-1-one] |
| 100 to 1000 | 1000 to 10000 | > 10000 | CN1C(=O)COc2nc(-c3ccc([C@]4(N)C[C@@](C)(O)C4)cc3)c(-c3ccccc3)cc21 [Example 134, 6-(4((1s,3s)-1-amino-3-hydroxy-3-methylcyclobutyl)phenyl)-1-methyl-7-phenyl-1H-pyrido[2,3-b][1,4]oxazin-2(3H)-one] |
| > 10000 | > 10000 | > 10000 | CCNC(=O)N1CCOc2nc(-c3ccc(C4(N)CCC4)cc3)c(-c3ccccc3)cc21 [Example 88, 6-(4-(1-aminocyclobutyl)phenyl)-N-ethyl-7-phenyl-2,3-dihydro-1H-pyrido[2,3-b][1,4]oxazine-1-carboxamide] |
| 1000 to 10000 | 1000 to 10000 | 1000 to 10000 | CN1C(=O)COc2nc(-c3ccc(C4(N)CCC4)cc3)c(-c3cccnc3)cc21 [Example 124, 6-(4-(1-aminocyclobutyl)phenyl)-1-methyl-7-(pyridin-3-0)-1H-pyrido[2,3-b][1,4]oxazin-2(3H)-one] |
| ≤ 100 | 1000 to 10000 | 1000 to 10000 | NC1(c2ccc(-c3nc4c(cc3-c3ccccc3)-n3c(nnc3-c3ccncc3)CO4)cc2)CCC1 [Example 123, 1-(4-(8-phenyl-1-(pyridin-4-yl)-4H-pyrido[2,3-b][1,2,4]triazolo[4,3-d][1,4]oxazin-7-yl)phenyl)cyclobutanamine] |
| 1000 to 10000 | 100 to 1000 | 1000 to 10000 | CN1C(=O)COc2nc(-c3ccc(CN)cc3)c(-c3ccccc3)cc21 [Example 131, 6-(4-(aminomethyl)phenyl)-1-methyl-7-phenyl-1H-pyrido[2,3-b][1,4]oxazin-2(3H)-one] |
| 100 to 1000 | 1000 to 10000 | 1000 to 10000 | CC(=O)CN1C(=O)COc2nc(-c3ccc(C4(N)CCC4)cc3)c(-c3ccccc3)cc21 [Example 36, 6-(4-(1-aminocyclobutyl)phenyl)-1-(2-oxopropyl)-7-phenyl-1H-pyrido[2,3-b][1,4]oxazin-2(3H)-one] |
| 1000 to 10000 | 100 to 1000 | 1000 to 10000 | CC(C)N1C(=O)COc2nc(-c3ccc(C4(N)CCC4)cc3)c(-c3ccccc3)cc21 [Example 57, 6-(4-(1-aminocyclobutyl)phenyl)-1-isopropyl-7-phenyl-1H-pyrido[2,3-b][1,4]oxazin-2(3H)-one] |
| ≤ 100 | 100 to 1000 | 1000 to 10000 | CCCc1nnc2n1-c1cc(-c3ccccc3)c(-c3ccc(C4(N)CCC4)cc3)nc1OC2 [Example 69, 1-(4-(8-phenyl-1-propyl-4H-pyrido[2,3-b][1,2,4]triazolo[4,3-d][1,4]oxazin-7-yl)phenyl)cyclobutanamine] |
| 100 to 1000 | 1000 to 10000 | > 10000 | CN(C)CCN1CCc2nc(-c3ccc(C4(N)CCC4)cc3)c(-c3ccccc3)cc2C1=O [Example 25] |
| 100 to 1000 | 1000 to 10000 | 1000 to 10000 | CC1Oc2nc(-c3ccc(C4(N)CCC4)cc3)c(-c3ccccc3)cc2N(C)C1=O (stereo not drawn) [Example 84, 6-(4-(1-aminocyclobutyl)phenyl)-1,3-dimethyl-7-phenyl-1H-pyrido[2,3-b][1,4]oxazin-2(3H)-one] |
| 1000 to 10000 | 100 to 1000 | 1000 to 10000 | NC1(c2ccc(-c3nc4c(cc3-c3ccccc3)N(Cc3ncc[nH]3)C(=O)CO4)cc2)CCC1 [Example 42, 1-((1H-imidazol-2-yl)methyl)-6-(4-(1-aminocyclobutyl)phenyl)-7-phenyl-1H-pyrido[2,3-b][1,4]oxazin-2(3H)-one] |
